Assays:
Assay in all cases: relative viability (nuclei count vs DMSO), 5 days (fraction); higher = more cells survive
[1] = compound: CN(C)C(=N)NC(=N)N [Metformin] + NC(=O)Nc1cc(-c2cccc(F)c2)sc1C(=O)N[C@H]1CCCNC1 [AZD7762] (partner 0.2 µM)
In short: (§1)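 Dosing by pin tool came one day after lung cancer cell lines were seeded in 1536-well plates, using either one drug or a fixed anchor-drug dose plus five library-drug doses (not always all listed) in √10 steps. After 5 days, nuclei were counted on 4× images. Relative viability is treated-well nuclei count divided by vehicle-well nuclei count, and values are medians of duplicate plates.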

[2] = compound: N#CC1(c2ccc(NC(=O)c3cccnc3NCc3ccncc3)cc2)CCCC1 [Apatinib] + NC(=O)Nc1cc(-c2cccc(F)c2)sc1C(=O)N[C@H]1CCCNC1 [AZD7762] (partner 0.2 µM)
In short: as §1

[3] = compound: CN(C)C(=N)NC(=N)N [Metformin] + Cc1nc(NC(=O)N2CCC[C@H]2C(N)=O)sc1-c1ccnc(C(C)(C)C(F)(F)F)c1 [Alpelisib] (partner 2 µM)
In short: as §1

[4] = compound: N#CC1(c2ccc(NC(=O)c3cccnc3NCc3ccncc3)cc2)CCCC1 [Apatinib] + COc1cccc2cc(-c3nc([C@H]4CC[C@H](C(=O)O)CC4)n4ncnc(N)c34)[nH]c12 [OSI-027] (partner 0.5 µM)
In short: as §1

Question: NCI-H460 was tested. Which relative viability ([1]; first compound 31.62 µM) did it give?
Answer: Its relative viability is 0.632.

Question: And the relative viability ([1]; first compound 100 µM)?
Answer: The relative viability was 0.676.

Question: And the relative viability ([1]; first compound 316.23 µM)?
Answer: Its relative viability is 0.433.

Question: What about the relative viability ([1]; first compound 1000 µM) of the same cell line?
Answer: Its relative viability is 0.553.

Question: And the relative viability ([2]; first compound 0.08 µM)?
Answer: Its relative viability is 0.538.

Question: And the relative viability ([2]; first compound 0.253 µM)?
Answer: Its relative viability is 0.581.

Question: And the relative viability ([2]; first compound 0.8 µM)?
Answer: Its relative viability is 0.417.

Question: And the relative viability ([2]; first compound 2.53 µM)?
Answer: Its relative viability is 0.269.

Question: What about the relative viability ([2]; first compound 8 µM) of the same cell line?
Answer: Its relative viability is 0.394.

Question: And the relative viability ([3]; first compound 31.62 µM)?
Answer: Its relative viability is 0.471.

Question: What about the relative viability ([3]; first compound 100 µM) of the same cell line?
Answer: Its relative viability is 0.534.

Question: And the relative viability ([3]; first compound 316.23 µM)?
Answer: The relative viability was 0.502.

Question: What about the relative viability ([3]; first compound 1000 µM) of the same cell line?
Answer: Its relative viability is 0.471.

Question: What about the relative viability ([4]; first compound 0.08 µM) of the same cell line?
Answer: Its relative viability is 0.799.

Question: What about the relative viability ([4]; first compound 0.253 µM) of the same cell line?
Answer: The relative viability was 0.746.

Question: And the relative viability ([4]; first compound 0.8 µM)?
Answer: Its relative viability is 0.491.

Question: What about the relative viability ([4]; first compound 2.53 µM) of the same cell line?
Answer: Its relative viability is 0.541.

Question: And the relative viability ([4]; first compound 8 µM)?
Answer: The relative viability was 0.333.

From the supplement of paper PMC10307832
